Experimental data as given in patent US20230332232A1, “COMPOSITIONS AND METHODS FOR DIAGNOSING AND TREATING A DYSTONIA” (Duke University, priority 2020, published 2023).

Assays:
[1] = tested on: DYT1 knockin (Tor1a^delGAG/+) murine embryonic fibroblasts (MEFs); assay: Untargeted LC/MS/MS proteomics of EVs from DYT1 MEFs exposed 24 hours to drug, compared with untreated DYT1 (Het) MEFs; type: cell-based, mouse
[2] = tested on: wild-type (WT) murine embryonic fibroblasts (MEFs); assay: microRNA-seq of EVs from WT MEFs treated with drug, compared with non-treated WT MEFs; type: cell-based, mouse; settings: for ISRIB Direction Same as dE?: EVs of WT MEFs
Experimental: In addition to proteomic analysis, total RNA-seq and microRNA-seq was performed on RNA isolated in parallel from the EV samples of Cohort 2. As with the proteomic analysis, one biological replicate was prepared from 3 distinct biological clonal cell lines for each genotype. Here, EVs were isolated from conditioned cell culture media by 18 hour ultracentrifugation at 100,000 g. RNA was extracted using the Qiagen miRNeasy Micro Kit (Cat. No. 217084) according to the manufacturer's protocol. Two RNA fractions were extracted from each sample, one enriched in coding and non-coding RNA species>200 nt (“Total RNA” fraction) and one enriched for small RNAs<200 nt (“miRNA” fraction).
RNA samples were then submitted to the Duke Sequencing and Genomic Technologies shared resource for further quality control and sequencing. Samples were assessed for concentration and integrity by Qubit and Fragment Analyzer. The miRNA fractions were 4.16 ng/μL-47.57 ng/μL and total RNA fractions were 3.8 ng/μL-43.6 ng/μL. The small RNA library was prepared using the QIAseq miRNA Library Kit (Cat No./ID: 331505) and sequenced on the Illumina NextSeq 500 High-Output platform with 75 bp single-reads. The total RNA library was prepared using the Illumina TruSeq Stranded Total RNA-seq Kit with Ribozero Gold ribosomal RNA reduction and sequenced on the Illumina NovaSeq 6000 S1 platform with 100 bp paired-end reads. Sequencer lane pooling and read depth are attached in the Excel data summary (See “RNA QC” Tab).
Data processing and analysis were performed in collaboration with the Duke Genomic Analysis and Bioinformatics shared resource. RNA-seq data was processed using the TrimGalore toolkit (http://www.bioinformatics.babraham.ac.uk/projects/trim_galore), which employs Cutadapt(Martin M. (2011) EMBnet.journal. 17(1):10-12) to trim low quality bases and Illumina sequencing adapters from the 3′ end of the reads. Only reads that were 20 nt or longer after trimming were kept for further analysis. Reads were mapped to the mouse genome and transcriptome (Kersey P J, et al. (2012) Nucleic Acids Res. 40(Database issue):D91-97) using the STAR RNA-seq alignment tool (Dobin A, et al. (2013). Bioinformatics. 29(1):15-21). If the reads mapped to a single genomic location, then they were kept for subsequent analysis. Gene counts were compiled using the HTSeq tool (http://www-huber.embl.de/users/anders/HTSeq/). Only genes that had at least 10 reads in any given library were used in subsequent analysis. Normalization and differential expression was carried out using the DESeq26 Bioconductor (Huber W, et al. (2015) Nat Methods. 12(2):115-121) package with the R statistical programming environment (www.r-project.org). The false discovery rate was calculated to control for multiple hypothesis testing and p-values were adjusted to an FDR of 5%.
694 miRNAs were initially examined with respect to QC, genotype, RTV effects, and ISRIB effects. This subset was the “Full miRNA” subset. FIG. 9A and FIG. 9B show the RTV effect on EV composition in DYT1 cells compared to WT cells for 279 miRNAs, respectively.

WT TorsinA = settings: cited from earlier work
[3] = ISRIB-treated vs non-treated WT MEF EVs

O=C(/C=C/c1ccccc1)NC(NC(=S)Nc1cccc2cccnc12)C(Cl)(Cl)Cl (stereo not shown) [SAL, Salubrinal]
SAL Direction Opposite ISRIB? ([1]; EV protein: ATP- binding cassette sub-family [?] member 1): yes
SAL Direction Opposite ISRIB? ([1]; EV protein: Nerine arginine-rich splicing factor [?]): yes

O=C(COc1ccc(Cl)cc1)NC1CCC(NC(=O)COc2ccc(Cl)cc2)CC1 (stereo not shown) [ISRIB]
mmu-miR-147-5p: ISRIB Direction Same as dE? [2, 3]: yes
mmu-miR-147-5p: ISRIBvWT Z Score [2, 3]: −0.31
mmu-miR-181a-1-3p: ISRIBvWT Z Score [2, 3]: −0.20
mmu-miR-331-5p: ISRIBvWT Z Score [2, 3]: 0.56
mmu-miR-668-3p: ISRIBvWT Z Score [2, 3]: −1.49
mmu-miR-1930-5p: ISRIB Direction Same as dE? [2, 3]: yes
mmu-miR-1930-5p: ISRIBvWT Z Score [2, 3]: 0.71
mmu-miR-1943-5p: ISRIBvWT Z Score [2, 3]: −1.07
mmu-miR-1955-5p: ISRIBvWT Z Score [2, 3]: 1.21
mmu-miR-3072-5p: ISRIBvWT Z Score [2, 3]: 0.00
mmu-miR-3076-3p: ISRIBvWT Z Score [2, 3]: 0.25
mmu-miR-3088-3p: ISRIBvWT Z Score [2, 3]: −0.45
mmu-miR-6936-3p: ISRIBvWT Z Score [2, 3]: −0.38
mmu-miR-7224-3p: ISRIB Direction Same as dE? [2, 3]: yes
mmu-miR-7224-3p: ISRIBvWT Z Score [2, 3]: −1.07
mmu-miR-467d-3p: ISRIB Direction Same as dE? [2, 3]: yes
mmu-miR-467d-3p: ISRIBvWT Z Score [2, 3]: −0.71
ISRIB Direction Same as dE? ([2]; mmu-let-7f-5p): yes
ISRIB Direction Same as dE? ([2]; mmu-let-7i-5p): yes
ISRIB Direction Same as dE? ([2]; mmu-miR-30e-5p): yes
ISRIB Direction Same as dE? ([2]; mmu-miR-19b-3p): yes
ISRIB Direction Same as dE? ([2]; mmu-miR-22-3p): yes
ISRIB Direction Same as dE? ([2]; mmu-miR-26b-Sp): yes
ISRIB Direction Same as dE? ([2]; mmu-miR-30a-5p): yes
ISRIB Direction Same as dE? ([2]; mmu-miR-30c-5p): yes
ISRIB Direction Same as dE? ([2]; mmu-miR-31-5p): yes
ISRIB Direction Same as dE? ([2]; mmu-miR-34a-5p): yes
ISRIB Direction Same as dE? ([2]; mmu-miR-34c-5p): yes
ISRIB Direction Same as dE? ([2]; mmu-miR-93-5p): yes
ISRIB Direction Same as dE? ([2]; mmu-miR-96-5p): yes
ISRIB Direction Same as dE? ([2]; mmu-miR-103-3p): yes
ISRIB Direction Same as dE? ([2]; mmu-miR-125b-1-3p): yes
ISRIB Direction Same as dE? ([2]; mmu-miR-130b-3p): yes
ISRIB Direction Same as dE? ([2]; mmu-miR-135a-5p): yes
ISRIB Direction Same as dE? ([2]; mmu-miR-140-3p): yes
ISRIB Direction Same as dE? ([2]; mmu-miR-148a-3p): yes
ISRIB Direction Same as dE? ([2]; mmu-miR-182-5p): yes
ISRIB Direction Same as dE? ([2]; mmu-miR-183-5p): yes
ISRIB Direction Same as dE? ([2]; mmu-miR-187-3p): yes
ISRIB Direction Same as dE? ([2]; mmu-miR-192-5p): yes
ISRIB Direction Same as dE? ([2]; mmu-miR-199a-3p): yes
ISRIB Direction Same as dE? ([2]; mmu-miR-199b-3p): yes
ISRIB Direction Same as dE? ([2]; mmu-miR-296-3p): yes
ISRIB Direction Same as dE? ([2]; mmu-miR-298-5p): yes
ISRIB Direction Same as dE? ([2]; mmu-miR-344-3p): yes
ISRIB Direction Same as dE? ([2]; mmu-miR-362-3p): yes
ISRIB Direction Same as dE? ([2]; mmu-miR-362-5p): yes
ISRIB Direction Same as dE? ([2]; mmu-miR-532-5p): yes
ISRIB Direction Same as dE? ([2]; mmu-miR-542-5p): yes
ISRIB Direction Same as dE? ([2]; mmu-miR-671-5p): yes
ISRIB Direction Same as dE? ([2]; mmu-miR-1291): yes
ISRIB Direction Same as dE? ([2]; mmu-miR-3535): yes
ISRIB Direction Same as dE? ([2]; mmu-miR-5121): yes
ISRIB Direction Same as dE? ([2]; mmu-miR-30h-5p): yes
ISRIB Direction Same as dE? ([2]; mmu-miR-344d-3p): yes
subcellular localization of WT TorsinA (WT TorsinA): alter the normal subcellular localization of WT TorsinA in a way that was more similar to the distribution of dE TorsinA in DYT1
